Reference: patent US20110098267A1, “TOPICAL FORMULATIONS FOR THE TREATMENT OF PSORIASIS” (Synta Pharmaceuticals Corporation, priority 2008, published 2011)
“Also recorded” adds a separate entry of the source.

What was measured:
IL-10 = assay: TaqMan RT-PCR gene expression in skin biopsies, clinical psoriasis study; format: in vivo, human; settings: lesional psoriatic skin biopsies of patients, week 2 vs pre-treatment (wk0), oral dosing
Method: (§1) A multicenter, randomized, open-label, multiple oral dose outpatient study was done in patients with moderate to severe chronic plaque psoriasis. Patients received Compound 5021 mg or 35 mg orally twice daily (BID), 35 mg or 70 mg orally once per day (QD). Patients remained on study medication for a period of 12 weeks.
(§2) Lesional and nonlesional skin biopsies were collected from adults with chronic plaque-type psoriasis before and after treatment with Compound 50. The biopsies were processed using the QIAGEN RNeasy kit. Using a rotor-stator tissue homogenizer (saw-tooth rotor; PowerGen 700), frozen specimens were homogenized in buffer (RLT; QIAGEN) for 30-60 s and spun in a microcentrifuge for 3 min at room temperature to pellet debris. The supernatant was loaded onto a QIAGEN minicolumn and spun for 15s at high speed. A series of washes and DNase digestion was followed by final elution of RNA from the column. RNA was quantitated by UV spectrophotometry. The primers and probes for the TaqMan RT-PCR assays for IL-12/23 p40, IL-23 p19, and IL-10 were generated using the Primer Express algorithm version 1.0 from published sequences (National Center for Biotechnology Information). All primers and probes were synthesized by Applied Biosystems-PerkinElmer. RT-PCR reactions were performed according to the manufacturer's directions (EZ PCR Core Reagents; TaqMan and Applied Biosystems). The human acidic ribosomal protein gene (hARP), a housekeeping gene, was used to normalize each sample and each gene.
(§3) Gene expression levels at week 2 (wk2) were compared to pre-treatment levels in lesional psoriatic skin (wk0). […] In the same biopsy samples, an increase in mRNA IL-10, an anti-inflammatory cytokine, was observed (FIG. 1C).

IL-12/23 p40 = assay: as above; format: in vivo, human; settings: lesional psoriatic skin biopsies of patients, week 2 vs pre-treatment (wk0), oral dosing, normalized to hARP
Method: as §1, §2, §3

IL-23 p19 = assay: as above; format: in vivo, human; settings: lesional psoriatic skin biopsies of patients, week 2 vs pre-treatment (wk0), oral dosing, normalized to hARP
Method: as §1, §2, §3

[1] = test system: CD11c+ cells (dendritic cells); assay: Immunohistochemistry cell counts in skin biopsies, clinical psoriasis study; format: in vivo, human
Method: as §1
(§4) Tissue sections of skin biopsies were stained with hematoxylin (Fisher) and eosin (Shandon, Pittsburgh) and purified mouse anti-human mAbs to K16 (Sigma), CD3 (Becton Dickinson), CD11c (BD Pharmingen). Biotin-labeled horse anti-mouse antibody (Vector Laboratories) was amplified with avidin-biotin complex (Vector Laboratories) and developed with chromogen 3-amino-9-ethylcarbazole (Sigma Aldrich). Epidermal thickness measures were computed by using National Institutes of Health software (NIH IMAGE 6.1), and positive cells were counted manually by using computer-assisted image analysis.

CD3+ cells = assay: as above; format: in vivo, human; settings: week 12, patients receiving 70 mg once a day
Method: as §1, §4

[2] = API-excipient compatibility, 1 month at 40° C. and 60° C.; format: physicochemical; settings: for % Deg. w/Main peak: 1 month 40° C.
Method: For the pre-formulation work Compound 50 was mixed with varying ratios of excipients commonly encountered in topical formulations.
The Compound 50 Pre-Formulation Studies began with the addition of each individual excipient to 500 mg of the Active Pharmaceutical Ingredient (API). Table I below explains the detail ratio between each excipient and API used for this study.
The samples, once prepared in scintillation vials, were kept at 40° C. and 60° C. for over one month. The samples were analyzed by the method (not validated) developed by the analytical support group.
The results in Tables III-V were analyzed with respect to Compound 50 standard to calculate % recovery of API in the presence of each excipient. […] Similar results in table V for samples 5-60° C., 6-60° C., 7-60° C., 8-60° C., 10-60° C., 17-60° C., and 18-60° C. were obtained which needs to be further analyzed.

[3] = Water solubility (statement); format: physicochemical
CD83 and CD11c = settings: responders of Alefacept therapy; cited from earlier work
[4] = week 12, patients receiving 70 mg once a day

Row | % Deg. w/Main peak ([2]; with Methylparaben, 1st impurity peak RRT 0.52) | w/Main Peak ([2]; with Methylparaben, 1 month 60° C., impurity peak 0.51) | w/Main Peak ([2]; with PEG-300, 1 month 60° C., impurity peak 0.60) | w/Main Peak ([2]; with PEG-400, 1 month 60° C., impurity peak 0.60) | w/Main Peak ([2]; with Polysorbate 80, 1 month 60° C., impurity peak 0.60) | w/Main Peak ([2]; with Propylene Glycol, 1 month 60° C., impurity peak 0.60) | % Deg. w/Main peak ([2]; with Propylparaben, 1st impurity peak RRT 0.78) | w/Main Peak ([2]; with Propylparaben, 1 month 60° C., impurity peak 0.78) | w/Main Peak ([2]; with Sorbitan Monooleate, 1 month 60° C., impurity peak 0.59) | water solubility [3] | Molecule | IL-10 mRNA (IL-10) | IL-12/23 p40 gene expression (IL-12/23 p40) | IL-23 p19 gene expression (IL-23 p19) | CD11c+ cells in epidermis count ([1]; all nonresponders, week 12) | decrease in CD11c+ cells in epidermis ([1]; all responder patients (histological improvement at week 12)) | CD11c+ cells in dermis (CD11DER) [1, 4] | CD11c+ cells in epidermis (CD11EPI) [1, 4] | CD3+ cells in dermis (CD3DER) (CD3+ cells) | CD3+ cells in epidermis (CD3EPI) (CD3+ cells) | CD83 and CD11c immunostaining (CD83 and CD11c)
1 | 0.34% | 13.75% | 0.51% | 1.87% | 1.30% | 0.11% | 8.96% | 6.37% | 8.25% | not water soluble | Cc1cccc(/C=N/Nc2cc(N3CCOCC3)nc(OCCc3ccccn3)n2)c1 [Compound 50, N-(3-Methyl-benzylidene)-N′-[6-morpholin-4-yl-2-(2-pyridin-2-yl-ethoxy)-pyrimidin-4-yl]-hydrazine] | increase | reduced; also recorded: decrease | reduced; also recorded: decrease | no significant reduction | ~100% | significant but less pronounced decreases | marked decrease | significant but less pronounced decreases | significant but less pronounced decreases | –
2 | – | – | – | – | – | – | – | – | – | – | Alefacept | – | – | – | – | – | – | – | – | – | decreases
